Laboratory results from US20220241240A1, “AGENTS AND METHODS FOR INCREASING STEM CELL FUNCTION” (priority 2019, published 2022).

Tests used:
[1] = system: bone marrow derived mouse HSCs (mHSCs); assay: Mitochondrial membrane potential (TMRM) and mitochondrial mass (Mitotracker) in cultured mHSCs, flow cytometry; format: cell-based
Protocol: We first tested the effect of UroA on bone marrow derived mouse HSCs (mHSCs) (FIG. 1A). Freshly isolated mHSCs (LKS CD150+CD48-) were cultured in basal media (Stemline+SCF+FLT3L+Penicillin/Streptomycin) supplemented with different concentrations of UroA. Cells were harvested at day 3 and stained with tetramethylrhodamine methyl ester (TMRM; to measure mitochondria membrane potential) and Mitotracker (to measure mitochondrial mass), and analysed by flow cytometry.
Flow cytometry analysis was performed on freshly isolated bone marrow (BM) from C571316 mice. BM was extracted from crushed femora and tibia. Cell suspension was filtered through a 70 μm cell strainer and erythroid cells were eliminated by incubation with red blood cell lysis buffer (eBioscences). Isolation and stains were performed in ice-cold PBS 1 mM EDTA. Lineage positive cells were then removed with a magnetic lineage depletion kit (BD biosciences). Cell suspensions were then stained with specific antibodies for the stem cell compartment and sorted by FACS (BD FACS Aria 111) into 1.5 ml Eppendorf tubes.
(§1) Murine HSCs were sorted into 1.5 ml Eppendorf tubes and were cultured in Stemline II (SIGMA) supplemented with 100 ng/ml SCF (R&D) and 2 ng/ml Flt3 (R&D). Different concentrations as indicated of UroA (dissolved in DMSO) were added; an equal amount of DMSO was added to the control well.
Mouse HSCs already in culture were incubated at 37° C. for 1 hour with 200 nM tetramethylrhodamine methyl ester (TMRM; Invitrogen) and 100 nM Mitotracker green. Cells were then washed with FACS buffer and analysed by flow cytometry on a BD LSR II.

[2] = system: human cord blood derived hematopoietic stem and progenitor cells (hHSPCs); assay: Mitochondrial membrane potential (TMRM) in cultured hHSPCs (CD34+), flow cytometry; format: cell-based; conditions: days 3, 5 and 7, increasing doses of UroA
Description: We then looked at the effect of UroA on human cord blood derived hematopoietic stem and progenitor cells (hHSPCs) (FIG. 1B). Cryopreserved hHSPCs (CD34+) were thawed and cultured in basal media (Stemspan+SCF+FLT3L+TPO+LDLP+Penicillin/Streptomycin) supplemented with different concentrations of UroA. Aliquots of cells were harvested at days 3, 5 and 7, followed by staining for CD34 and TMRM, and analysed by flow cytometry.
Cryopreserved CD34+ cells isolated from foetal liver/cord blood were thawed and cultured in vitro in StemSpan (Stem cell tech) media supplemented with hSCF (100 ng/ml), hFLT3L (100 ng/ml), hTPO (50 ng/ml), hLDLP (10 μg/ml) and different concentrations of UroA (dissolved in DMSO) were added; an equal amount of DMSO was added to the control well. For longer culture periods half of the media was replenished every 2nd or 3rd day.
Human HSCs already in culture were incubated at 37° C. for 1 hour with 200 nM TMRM (Invitrogen). Cells were then washed with FACS buffer, followed by staining with CD34 antibody for 1 hour at 4° C. Cells were washed with FACS buffer and analysed by flow cytometry on a BD LSR II.

mHSCs [3] = assay: In vivo reconstitution by UroA-cultured mHSCs in lethally irradiated recipient mice; parameters: species or system mouse; conditions: mHSCs cultured 3 days with 20 μM UroA, injected into lethally irradiated mice
Protocol: Having previously shown that lowering mitochondrial membrane potential enhances HSC function (Vannini, N. et al. (2016) Nat Commun 7: 13125), we asked if UroA treatment improves in vivo reconstitution potential of HSCs. To that end, we cultured freshly isolated mHSCs in basal media without or with UroA (20 μM). At the end of the culture period (3 days) cells were counted and injected into lethally irradiated recipient mice (FIG. 2A).
as §1
C57131/6 Ly5.2 mice were lethally irradiated with a total 8 Gy dose in a gamma radiator 24 h before transplant. Mice were injected with 200 donor cells post culture derived from C57131/6 Ly5.1 mice and 200,000 competitor cells derived from C57131/6 Ly5.1/5.2 mice, via tail-vein injection. Peripheral blood was collected every few weeks to determine the percentage of chimerism by FACS analysis.

[4] = system: cord blood derived human HSPCs; assay: Colony Forming Unit (CFU) assay in methylcellulose; format: cell-based; conditions: hHSPCs cultured 7 days with 50 μM UroA; colonies counted 15 days post plating; versus control
Protocol: Next, we cultured cord blood derived human HSPCs without or with UroA (50 μM) and performed two functional assays: Colony Forming Unit (CFU) assay—7 days post culture and in vivo transplantation assay in new born NSG-SGM3 pups—5 days post culture (FIG. 2B). […] Cryopreserved CD34+ cells isolated from foetal liver/cord blood were thawed and cultured in vitro in StemSpan (Stem cell tech) media supplemented with hSCF (100 ng/ml), hFLT3L (100 ng/ml), hTPO (50 ng/ml), hLDLP (10 μg/ml) and different concentrations of UroA (dissolved in DMSO) were added; an equal amount of DMSO was added to the control well. For longer culture periods half of the media was replenished every 2nd or 3rd day. CFU assays were carried out using H4434 (Stem cell tech) as per the manufacturer's instructions. 1000 cells from each well were plated in duplicate. Colonies were counted 15 days post plating using Stem Vision (Stem cell tech).

[5] = system: cord blood derived human HSPCs; assay: In vivo transplantation assay of UroA-cultured hHSPCs in new born NSG-SGM3 pups; conditions: hHSPCs cultured 5 days with 50 μM UroA
Protocol: Next, we cultured cord blood derived human HSPCs without or with UroA (50 μM) and performed two functional assays: Colony Forming Unit (CFU) assay—7 days post culture and in vivo transplantation assay in new born NSG-SGM3 pups—5 days post culture (FIG. 2B). […] Cryopreserved CD34+ cells isolated from foetal liver/cord blood were thawed and cultured in vitro in StemSpan (Stem cell tech) media supplemented with hSCF (100 ng/ml), hFLT3L (100 ng/ml), hTPO (50 ng/ml), hLDLP (10 μg/ml) and different concentrations of UroA (dissolved in DMSO) were added; an equal amount of DMSO was added to the control well. For longer culture periods half of the media was replenished every 2nd or 3rd day. NSG mice were purchased from Jackson Laboratory, bred and maintained under pathogen-free conditions in-house. For transplantation, one day old NSG pups were irradiated with 1 Gy (RS-2000, RAD SOURCE) and a few hours later injected intrahepatically with in vitro expanded HSCs. Each pup was injected with a cell mass derived from an initial 50,000 CD34+ cells post in vitro culture. Mice were bled at 12 weeks to estimate human reconstitution levels (% human CD45+ cells) in the peripheral blood. Antibody combinations were used to further estimate human B cells, T cells, monocytes, neutrophils and NK cells.

mHSCs [6] = assay: QPCR gene expression analysis on cultured mHSCs; format: cell-based, mouse; conditions: mHSCs cultured with 20 μM UroA versus without
Protocol: To have analyse the molecular mechanisms by which UroA enhances HSC function, we performed gene expression analysis on mHSCs cultured in basal media with or without UroA (20 μM).
RNA was extracted from HSCs post culture using ZR RNA MicroPrep (Zymo Research) and RNA extraction was performed accordingly to the manufacturer's instructions. RNA was retrotranscribed to cDNA with 1st strand cDNA kit (TAKARA) as per the manufacturer's instructions.
For qPCR, 0.5 μl of cDNA, 5 μl of Power Syber Green mastermix (Applied Biosystem) and 500 nM of primers were used to a final volume of 10 μl for each reaction. The reactions were performed on the 7900HT system (Applied Biosystem).

[7] = system: Human Cord-blood derived HSCPs; assay: Limiting transplantation experiment: survival of irradiated adult NSG mice given UroA-cultured HSPCs; format: in vivo; conditions: HSPCs cultured three days with 50 μM UroA, 40,000 cells per irradiated adult NSG mouse; followed eight months; especially early post-transplant phases
Protocol: A) Human cord blood derived HSPCs were cultured in basal media with or without 50 μM UroA. Three days post culture cells were counted and limiting dose (40,000 cells) was injected in each irradiated recipient adult NSG mouse and survival was monitored over several months.
In order to check if a short in vitro treatment with UroA could improve the survival of irradiated recipients post transplantation we designed a limiting transplantation experiment. Human Cord-blood derived HSCPs were cultured for three days in the absence or presence of UroA. Post culture cells were counted and 40,000 cells were injected in each recipient mouse (irradiated NSG adult mice). We followed these mice for several months to check for post transplantation survival.

human HSCs = conditions: culture media supplemented with nicotinamide riboside; cited from earlier work

## O=c1oc2cc(O)ccc2c2ccc(O)cc12 [UroA, 3,8-dihydroxyurolithin]
[1]; mHSCs (LKS CD150+CD48-), day 3 of culture, increasing doses of UroA
  proportion of cells in the TMRM low gate: step-wise increase
[1]; mHSCs, day 3, 20 μM UroA
  mitochondrial mass (Mitotracker staining): significant reduction
[1]; mHSCs, day 3, all concentrations of UroA
  mitochondrial mass (Mitotracker staining): decrease in the mitochondrial mass
[1]; mHSCs, day 3 of culture, increasing doses of UroA
  TMRM fluorescent intensity (Mean Fluorescence Intensity, MFI): significant lowering
[2]
  TMRM signal (Median Fluorescence Intensity, MFI): concomitant decrease of TMRM signal
  proportions of cells in the TMRM low gate: increasing proportions of cells in the TMRM^low gate
mHSCs [3]
  reconstitution in myeloid and lymphoid lineages of the blood: This trend was reflected in both the myeloid and lymphoid lineages
mHSCs [3]; versus cells cultured without UroA
  blood reconstitution levels of recipients: higher reconstitution levels
[4]
  numbers of colonies (CFU assay): significantly higher numbers of colonies
[5]; NSG-SGM3 mice, primarily lymphoid lineage (T and B cells)
  human cell numbers in blood cell lineages: higher human cell numbers
[5]; transplanted in irradiated NSG-SGM3 pups
  human engraftment (proportion and absolute numbers) in blood: increased human engraftment
mHSCs [6]
  expression of ROS protection genes (Foxo1, SOD2), fold change (delta delta CT): increased expression
  expression of autophagy genes (ATGS, PARK2), fold change (delta delta CT): increased expression
  expression of glycolysis genes (HK2, Glut1), fold change (delta delta CT): increased expression
[7]
  post transplantation survival of recipient mice: significant improvement in survival

## NC(=O)c1ccc[n+]([C@@H]2O[C@H](CO)[C@@H](O)[C@H]2O)c1 [nicotinamide riboside]
Human HSCs
  levels of engraftment in primary and secondary recipient humanised mice: significantly higher levels of engraftment
